Measurements: PubChem BioAssay AID248 (DTP/NCI, 2004)
Values joined by “and” are separate entries in the source; they are usually repeats but may differ in a detail not shown here. Equal entries are not always repeated. Toxic doses and inconclusive results are not listed. No stated cut-off is given here; in the data, active means T/C of 150% or more; inactive means T/C below 125%.

Test system: L1210 leukemia ip in BDF1 mice, survival T/C
Assay: NCI In Vivo Anticancer Drug Screen. Data for tumor model L1210 Leukemia (intraperitoneal) in B6D2F1 (BDF1) mice
Details: endpoint: mean survival time, higher = longer survival
Procedure, shortened: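 Tumor cells were implanted, animals were treated, and survival was followed. The result divides the treated measurement by the vehicle-control measurement.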

[1] = dose: 100.0 mg/kg/injection, schedule: Q04DX003 (ip), vehicle: saline
[2] = dose: 200.0 mg/kg/injection, schedule: Q04DX003 (ip), vehicle: saline
[3] = dose: 400.0 mg/kg/injection, schedule: Q04DX003 (ip), vehicle: saline
[4] = dose: 50.0 mg/kg/injection, schedule: Q01DX001 (ip), vehicle: carboxymethylcellulose (CMC)
[5] = dose: 100.0 mg/kg/injection, schedule: Q01DX001 (ip), vehicle: carboxymethylcellulose (CMC)
[6] = dose: 200.0 mg/kg/injection, schedule: Q01DX001 (ip), vehicle: carboxymethylcellulose (CMC)
[7] = dose: 400.0 mg/kg/injection, schedule: Q01DX001 (ip), vehicle: carboxymethylcellulose (CMC)
[8] = dose: 100.0 mg/kg/injection, schedule: Q04DX002 (ip), vehicle: saline with Tween-80
[9] = dose: 100.0 mg/kg/injection, schedule: Q01DX009 (ip), vehicle: Klucel (hydroxypropylcellulose) (HPC)
[10] = dose: 200.0 mg/kg/injection, schedule: Q01DX009 (ip), vehicle: Klucel (hydroxypropylcellulose) (HPC)
[11] = dose: 400.0 mg/kg/injection, schedule: Q01DX009 (ip), vehicle: Klucel (hydroxypropylcellulose) (HPC)
[12] = dose: 100.0 mg/kg/injection, schedule: Q04DX003 (ip), vehicle: saline with Tween-80
[13] = dose: 200.0 mg/kg/injection, schedule: Q04DX003 (ip), vehicle: saline with Tween-80
[14] = dose: 400.0 mg/kg/injection, schedule: Q04DX003 (ip), vehicle: saline with Tween-80
[15] = dose: 100.0 mg/kg/injection, schedule: Q01DX001 (ip), vehicle: Klucel (hydroxypropylcellulose) (HPC)
[16] = dose: 100.0 mg/kg/injection, schedule: Q04DX003 (ip), vehicle: Klucel (hydroxypropylcellulose) (HPC)
[17] = dose: 200.0 mg/kg/injection, schedule: Q01DX001 (ip), vehicle: Klucel (hydroxypropylcellulose) (HPC)
[18] = dose: 200.0 mg/kg/injection, schedule: Q04DX003 (ip), vehicle: Klucel (hydroxypropylcellulose) (HPC)
[19] = dose: 400.0 mg/kg/injection, schedule: Q01DX001 (ip), vehicle: Klucel (hydroxypropylcellulose) (HPC)
[20] = dose: 50.0 mg/kg/injection, schedule: Q01DX009 (ip), vehicle: Klucel (hydroxypropylcellulose) (HPC)

Measured: T/C

CC1=NN(c2ccc(S(=O)(=O)O)cc2)C(=O)/C1=C\c1c(C)[nH]n(-c2ccc(S(=O)(=O)O)cc2)c1=O
inactive: dose: 100.0 mg/kg/injection, schedule: Q01DX009 (ip), vehicle: saline 97 % of control | [1] 91 % of control | dose: 200.0 mg/kg/injection, schedule: Q01DX009 (ip), vehicle: saline 106 % of control | [2] 95 % of control | dose: 400.0 mg/kg/injection, schedule: Q01DX009 (ip), vehicle: saline 92 % of control | [3] 91 % of control

COC(=O)CCCCCCCCCCS.[Pb]
inactive: [4] 92 % of control | [5] 94 % of control | [6] 94 % of control | [7] 97 % of control

Cc1cccc(Cl)c1OCC(=O)Nc1ccccc1
inactive: [8] 101 % of control | dose: 200.0 mg/kg/injection, schedule: Q04DX002 (ip), vehicle: saline with Tween-80 104 % of control

CN(C)/N=C/c1ccccn1
inactive: [1] 106 % of control | [2] 109 % of control

CC(C)=NNC(=O)CNc1cccc(C(F)(F)F)c1
inactive: dose: 100.0 mg/kg/injection, schedule: Q04DX002 (ip), vehicle: Klucel (hydroxypropylcellulose) (HPC) 107 % of control | dose: 200.0 mg/kg/injection, schedule: Q04DX002 (ip), vehicle: Klucel (hydroxypropylcellulose) (HPC) 110 % of control | dose: 400.0 mg/kg/injection, schedule: Q04DX002 (ip), vehicle: Klucel (hydroxypropylcellulose) (HPC) 100 % of control

CCCCNC(=O)N(C1CCCCC1)C1CCCCC1
inactive: [9] 103 % of control | [10] 92 % of control | [11] 92 % of control

c1ccc(CN(CCCOc2ccccc2)Cc2ccccc2)cc1
inactive: [12] 103 % of control | [13] 103 % of control | [14] 97 % of control

CC(=O)N[C@H]1CC[C@H]2[C@@H]3CCC4=CC(=O)CC[C@]4(C)[C@H]3CC[C@]12C
inactive: [12] 86 % of control | [13] 92 % of control | [14] 86 % of control

COc1ccc(NC(=O)Oc2ccc(Cl)c(C)c2)cc1
inactive: [12] 93 % of control | [13] 90 % of control | [14] 88 % of control

O=C(Oc1ccccc1)c1cc(Br)ccc1O
inactive: [5] 97 % of control | [6] 95 % of control | [7] 100 % of control

NC(CCC1SCCS1)C(=O)O (configuration not stated)
inactive: [5] 104 % of control | [6] 96 % of control | [7] 98 % of control

CCOC(=O)c1[nH]c(C)c(C(=O)OCC)c1-c1ccc(OC)cc1
inactive: [15] 100 % of control | [16] 96 % of control | [17] 93 % of control | [18] 108 % of control | [19] 98 % of control | dose: 400.0 mg/kg/injection, schedule: Q04DX003 (ip), vehicle: Klucel (hydroxypropylcellulose) (HPC) 96 % of control

Cc1ccc(N=Cc2ccc3c(c2)OCO3)cc1
inactive: [15] 100 % of control | [9] 91 % of control | [17] 104 % of control | [10] 105 % of control | [19] 118 % of control | [11] 98 % of control

Cc1ccc(S(=O)(=O)ON/N=C2\C(=O)C3CCC2C3)cc1 (configuration not stated)
inactive: [8] 95 % of control

CCCCCCCCc1nc2c(c(=O)n(C)c(=O)n2C)n1C
inactive: dose: 45.0 mg/kg/injection, schedule: Q01DX001 (ip), vehicle: saline 95 % of control and 101 % of control | dose: 67.0 mg/kg/injection, schedule: Q01DX001 (ip), vehicle: saline 101 % of control and 104 % of control | dose: 100.0 mg/kg/injection, schedule: Q01DX001 (ip), vehicle: saline 97 % of control and 104 % of control | dose: 150.0 mg/kg/injection, schedule: Q01DX001 (ip), vehicle: saline 95 % of control and 101 % of control

CC(=O)OC1=C(CC(C)(C)C)C(=O)c2ccccc2C1=O
inactive: [4] 103 % of control | [5] 103 % of control | [6] 100 % of control | [7] 105 % of control

CS(=O)(=O)N1C=CC=CC=C1
inactive: dose: 12.5 mg/kg/injection, schedule: Q01DX009 (ip), vehicle: Klucel (hydroxypropylcellulose) (HPC) 91 % of control | dose: 12.5 mg/kg/injection, schedule: Q04DX003 (ip), vehicle: Klucel (hydroxypropylcellulose) (HPC) 96 % of control | dose: 25.0 mg/kg/injection, schedule: Q01DX009 (ip), vehicle: Klucel (hydroxypropylcellulose) (HPC) 95 % of control | dose: 25.0 mg/kg/injection, schedule: Q04DX003 (ip), vehicle: Klucel (hydroxypropylcellulose) (HPC) 98 % of control | [20] 95 % of control | dose: 50.0 mg/kg/injection, schedule: Q04DX003 (ip), vehicle: Klucel (hydroxypropylcellulose) (HPC) 105 % of control

CCC(C#N)(CCN(CC=C(C)C)CC=C(C)C)c1cccc2ccccc12 (configuration not stated)
inactive: [16] 96 % of control

C=CCNC(=O)Oc1cccc(NC(=O)/C=C/C)c1
inactive: dose: 100.0 mg/kg/injection, schedule: Q01DX009 (ip), vehicle: saline with Tween-80 88 % of control | [12] 97 % of control | [13] 95 % of control | [14] 92 % of control

COc1ccc(Cl)cc1Cl
inactive: dose: 75.0 mg/kg/injection, schedule: Q01DX009 (ip), vehicle: saline 90 % of control | dose: 75.0 mg/kg/injection, schedule: Q04DX003 (ip), vehicle: saline 100 % of control | dose: 150.0 mg/kg/injection, schedule: Q01DX009 (ip), vehicle: saline 86 % of control | dose: 150.0 mg/kg/injection, schedule: Q04DX003 (ip), vehicle: saline 95 % of control | dose: 300.0 mg/kg/injection, schedule: Q01DX009 (ip), vehicle: saline 92 % of control | dose: 300.0 mg/kg/injection, schedule: Q04DX003 (ip), vehicle: saline 90 % of control

CCCCCCCN(CCCCCCC)C(C)C(=O)c1ccc2cc(Br)c3ccccc3c2c1 (configuration not stated)
inactive: dose: 100.0 mg/kg/injection, schedule: Q01DX001 (ip), vehicle: alcohol 106 % of control | dose: 200.0 mg/kg/injection, schedule: Q01DX001 (ip), vehicle: alcohol 97 % of control | dose: 400.0 mg/kg/injection, schedule: Q01DX001 (ip), vehicle: alcohol 100 % of control

COc1cccc(CC(=O)C(=O)O)c1
inactive: [20] 98 % of control | [9] 90 % of control | [16] 97 % of control | [10] 95 % of control | [18] 98 % of control

O=NN1C(=O)C2CC3CC(C2)CC1C3
inactive: dose: 3.12 mg/kg/injection, schedule: Q01DX009 (ip), vehicle: saline with Tween-80 91 % of control | dose: 6.25 mg/kg/injection, schedule: Q01DX009 (ip), vehicle: saline with Tween-80 107 % of control | dose: 12.5 mg/kg/injection, schedule: Q01DX009 (ip), vehicle: saline with Tween-80 96 % of control

CC(=O)C(N=Nc1nn[nH]n1)C(C)=O
inactive: [1] 104 % of control | [2] 93 % of control | [3] 96 % of control
